Tests used:
Test in all cases: whole-cell patch clamp
Assay type in all cases: cell-based
α1β2 GABAA receptor [1] = details: EC30 GABA (0.5 μM), -60 mV, pH 7.3
α6β2γ2 GABAA receptor = details: EC30 GABA (1 μM), -60 mV, pH 7.3, biphasic effect
α1β2 GABAA receptor [2] = details: EC30 GABA, TM2 6' position, -60 mV, pH 7.3
α3β2γ2 GABAA receptor = details: inhibition of current by EC30 GABA; -60 mV, pH 7.3, 22-25 °C; called competitive

IC50 (α3β2γ2 GABAA receptor): 14 ± 6.3 µM
Compound: O=C1Nc2ccc(Cl)cc2[C@@](C#CC2CC2)(C(F)(F)F)O1 [Efavirenz]
% of control end-application current at 30 μM (α1β2 GABAA receptor [1]): 1.6 ± 1.7% | % of control end-application current at 30 μM (α6β2γ2 GABAA receptor): 46 ± 6.1% | % of control end-application current at 30 μM (α1β2 GABAA receptor [2]): 95 ± 18%
